Assays:
Rattus norvegicus [1] = species on record: Rattus norvegicus; assay: Inhibition of rat glial cell gap junction at the concentration of 50 uM; format: functional
Rattus norvegicus [2] = species on record: Rattus norvegicus; assay: Tested for inhibition of rat glial cell gap junction at the concentration of 20 uM; format: functional

`CCCCC/C=C\C/C=C\C/C=C\C/C=C\CCCC(=O)N(C)C(C)C` showed an inhibition at 50 µM (Rattus norvegicus [1]) of 100%.
With `CCCCCCCC/C=C\CCCCCCCC(=O)N(C)C` the inhibition at 20 µM (Rattus norvegicus [2]) was 70% and the inhibition at 50 µM (Rattus norvegicus [1]) was 100%.
`CCCCCCCC/C=C\CCCCCCCC(=O)N(CC)CC` showed an inhibition at 20 µM (Rattus norvegicus [2]) of 15% and an inhibition at 50 µM (Rattus norvegicus [1]) of 100%.
`CCCCCCCC/C=C\CCCCCCCC(=O)NCC` showed an inhibition at 20 µM (Rattus norvegicus [2]) of 50% and an inhibition at 50 µM (Rattus norvegicus [1]) of 100%.
`CCCCC/C=C\C/C=C\C/C=C\C/C=C\CCCC(=O)NCCCC` gave an inhibition at 50 µM (Rattus norvegicus [1]) of 10%.
`CCCCC/C=C\C/C=C\C/C=C\C/C=C\CCCC(=O)N(C)C` gave an inhibition at 50 µM (Rattus norvegicus [1]) of 100%.
Work on `CCCCCCCC/C=C\CCCCCCCC(=O)NC(C)C` yielded an inhibition at 50 µM (Rattus norvegicus [1]) of 100%.
`CCCCCCCC/C=C\CCCCCCCC(=O)N1CCCC1` was tested, and the inhibition at 20 µM (Rattus norvegicus [2]) was 0% and the inhibition at 50 µM (Rattus norvegicus [1]) was 100%.
`CCCCC/C=C\C/C=C\C/C=C\C/C=C\CCCC(=O)N(C)OC` gave an inhibition at 50 µM (Rattus norvegicus [1]) of 100%.
Work on `CCCCCCCC/C=C\CCCCCCCC(=O)NC1CC1` yielded an inhibition at 50 µM (Rattus norvegicus [1]) of 100%.
Compound `C=CCNC(=O)CCCCCCC/C=C\CCCCCCCC` has an inhibition at 50 µM (Rattus norvegicus [1]) of 100%.
`CCCCCCCC/C=C\CCCCCCCC(=O)N(CCO)CCO` was tested, and the inhibition at 20 µM (Rattus norvegicus [2]) was 0% and the inhibition at 50 µM (Rattus norvegicus [1]) was 8%.
In the case of `CCCCC/C=C\C/C=C\C/C=C\C/C=C\CCCC(=O)NC`, the inhibition at 50 µM (Rattus norvegicus [1]) is reported as 100%.
In the case of `CCCCCCCC/C=C\CCCCCCCC(=O)N(C)C(C)C`, the inhibition at 50 µM (Rattus norvegicus [1]) is reported as 100%.
For `CCCCC/C=C\C/C=C\C/C=C\C/C=C\CCCC(=O)N(CC)CC`, the inhibition at 50 µM (Rattus norvegicus [1]) was 100%.
Compound `CCCCC/C=C\C/C=C\C/C=C\C/C=C\CCCC(=O)NCC` has an inhibition at 50 µM (Rattus norvegicus [1]) of 100%.
For `CCCCCCCC/C=C\CCCCCCCC(=O)NC`, the inhibition at 20 µM (Rattus norvegicus [2]) was 70% and the inhibition at 50 µM (Rattus norvegicus [1]) was 100%.
Compound `CCCCC/C=C\C/C=C\C/C=C\C/C=C\CCCC(=O)N(CCO)CCO` has an inhibition at 20 µM (Rattus norvegicus [2]) of 0% and an inhibition at 50 µM (Rattus norvegicus [1]) of 0%.
`CCCCCCCC/C=C\CCCCCCCC(=O)NCCCO` gave an inhibition at 50 µM (Rattus norvegicus [1]) of 100%.
`CCCCCCCC/C=C\CCCCCCCC(=O)NCCC` showed an inhibition at 20 µM (Rattus norvegicus [2]) of 50% and an inhibition at 50 µM (Rattus norvegicus [1]) of 90%.
With `CCCCC/C=C\C/C=C\C/C=C\C/C=C\CCCC(=O)NC(C)C` the inhibition at 50 µM (Rattus norvegicus [1]) was 100%.
In the case of `CCCCCCCC/C=C\CCCCCCCC(=O)NCCCc1ccccc1`, the inhibition at 50 µM (Rattus norvegicus [1]) is reported as 0%.
`C=CCNC(=O)CCC/C=C\C/C=C\C/C=C\C/C=C\CCCCC` showed an inhibition at 50 µM (Rattus norvegicus [1]) of 90%.
Compound `CCCCCCCC/C=C\CCCCCCCC(=O)NO` has an inhibition at 50 µM (Rattus norvegicus [1]) of 100%.
Compound `CCCCCCCC/C=C\CCCCCCCC(=O)NCCCC` has an inhibition at 50 µM (Rattus norvegicus [1]) of 100%.
Work on `CCCCC/C=C\C/C=C\C/C=C\C/C=C\CCCC(=O)N(CCC)CCC` yielded an inhibition at 50 µM (Rattus norvegicus [1]) of 10%.
For `CCCCC/C=C\C/C=C\C/C=C\C/C=C\CCCC(=O)NC1CC1`, the inhibition at 50 µM (Rattus norvegicus [1]) was 100%.
`CCCCCCCC/C=C\CCCCCCCC(=O)N(C)OC` showed an inhibition at 20 µM (Rattus norvegicus [2]) of 100% and an inhibition at 50 µM (Rattus norvegicus [1]) of 100%.
Compound `CCCCC/C=C\C/C=C\C/C=C\C/C=C\CCCC(=O)N1CCCC1` has an inhibition at 50 µM (Rattus norvegicus [1]) of 100%.
For `CCCCC/C=C\C/C=C\C/C=C\C/C=C\CCCC(=O)NCCC`, the inhibition at 50 µM (Rattus norvegicus [1]) was 100%.
`CCCCC/C=C\C/C=C\C/C=C\C/C=C\CCCC(=O)NCCO` [ANANDAMIDE] gave an inhibition at 20 µM (Rattus norvegicus [2]) of 35% and an inhibition at 50 µM (Rattus norvegicus [1]) of 100%.
`CCCCC/C=C\C/C=C\C/C=C\C/C=C\CCCC(N)=O` [ARACHIDONAMIDE] gave an inhibition at 20 µM (Rattus norvegicus [2]) of 90% and an inhibition at 50 µM (Rattus norvegicus [1]) of 100%.
`CCCCC/C=C\C/C=C\C/C=C\C/C=C\CCCC(=O)O` [ARACHIDONIC ACID] showed an inhibition at 20 µM (Rattus norvegicus [2]) of 0% and an inhibition at 50 µM (Rattus norvegicus [1]) of 0%.
`CCCCCCCC/C=C\CCCCCCCC(N)=O` [OLEAMIDE] gave an inhibition at 20 µM (Rattus norvegicus [2]) of 100% and an inhibition at 50 µM (Rattus norvegicus [1]) of 100%.
`CCCCCCCC/C=C\CCCCCCCC(=O)Nc1ccccc1` [OLEIC ACID ANILIDE] was tested, and the inhibition at 50 µM (Rattus norvegicus [1]) was 0%.
`CCCCCCCC/C=C\CCCCCCCC(=O)O` [OLEIC ACID] gave an inhibition at 20 µM (Rattus norvegicus [2]) of 0% and an inhibition at 50 µM (Rattus norvegicus [1]) of 0%.
In the case of `CCCCCCCC/C=C\CCCCCCCC(=O)NCCO` [OLEOYLETHANOLAMIDE], the inhibition at 20 µM (Rattus norvegicus [2]) is reported as 0% and the inhibition at 50 µM (Rattus norvegicus [1]) is reported as 100%.

Source: ChEMBL document CHEMBL1131678, “Arachidonic acid amide inhibitors of gap junction cell-cell communication” (1999)
